Active and inactive are the calls of the source.
Key:
[1] = biological target: Eukaryotic translation initiation factor 4H (Homo sapiens, UniProt Q15056); test: human eIF4H binding inhibitors, primary screen, translation initiation inhibitor project, biochemical, uHTS, fluorescence polarization (AID 2012)
[2] = biological target: 5-hydroxytryptamine receptor 1A (Homo sapiens, UniProt P08908); type: functional
[3] = biological target: Polyadenylate-binding protein 1 (Homo sapiens, UniProt P11940); test: PABP poly(A) RNA binding inhibitors, primary screen, biochemical, fluorescence polarization, uHTS (AID 2014)
[4] = biological target: T1, Carboxy-terminal domain RNA polymerase II polypeptide A small phosphatase 1 (Homo sapiens, UniProt Q9GZU7); test: inhibitors of CTDSP1, concentration-response testing, biochemical assay, absorbance-based, actives from ultra-high-throughput screening (AID 540297); type: functional
T1 sequence (Q9GZU7 whole entry): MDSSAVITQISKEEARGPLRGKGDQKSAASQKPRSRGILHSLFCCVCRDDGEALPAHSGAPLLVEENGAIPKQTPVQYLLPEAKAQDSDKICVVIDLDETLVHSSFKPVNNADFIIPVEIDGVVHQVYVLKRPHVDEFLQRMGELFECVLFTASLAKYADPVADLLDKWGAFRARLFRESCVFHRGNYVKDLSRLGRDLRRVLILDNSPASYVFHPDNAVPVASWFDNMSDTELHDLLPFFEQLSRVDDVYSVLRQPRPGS

[5] = M. tuberculosis H37Rv growth inhibitors, H37Rv strain (AID 1626); type: functional
[6] = inhibitors of intracellular T. cruzi replication, confirmation, NIH3T3 host cells, beta-gal luminescence (AID 2044); type: functional, cell-based;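 also: intracellular parasites grown in NIH/3T3 mouse fibroblasts as host cells; luminescent beta-galactosidase reporter signal from transgenic T. cruzi replicating inside host cells; inhibitors lower the luminescence signal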
[7] = cytotoxicity toward NIH3T3 fibroblasts, dose response, counter-screen, cell-based, ATP luminescence, mouse fibroblasts (AID 2010); type: functional;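 also: cells exposed to compound for about 90 hours before reading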
[8] = M. tuberculosis growth inhibition, HTS (AID 449762); type: functional
[9] = test system: Danio rerio; test: In Vivo Angiogenesis Dose-Response Confirmation. [Related pubchem assays: 732 (Assay preceding this confirmatory assay.)]; type: functional, organism-based
[10] = biological target: Peroxisome proliferator-activated receptor gamma/Nuclear receptor corepressor 2 (Homo sapiens, UniProt P37231+Q9Y618); test: Counterscreen for NR2E3 inverse agonists: TR-FRET-based biochemical high throughput dose response assay to identify inverse agonists of the interaction between peroxisome proliferator-activated receptor gamma (PPARg) and nuclear receptor co-repressor 2 (NCOR2).; type: functional
[11] = biological target: Photoreceptor-specific nuclear receptor (Homo sapiens, UniProt Q9Y5X4); test: NR2E3 inverse agonists, dose response, biochemical, TR-FRET (AID 463256); type: functional
[12] = biological target: Genome polyprotein (Hepatitis C virus, UniProt Q2Q167); test: HCV core protein dimerization inhibitors, dose response, biochemical, TR-FRET (AID 2159); design: species or system Hepacivirus hominis;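 also: blocks dimerization of HCV core protein measured by TR-FRET between tagged core106 pairs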
[13] = test system: H9c2; test: cells; type: functional, cell-based; conditions: Rattus norvegicus, H9c2, Myocardium;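 also: confirmatory concentration-response retest of ultra-high-throughput screening hits for modulation of myocardial damage; cell death induced by hydrogen peroxide oxidative stress; compound pretreatment for 60 min then peroxide exposure for 2 h; potency is for protecting the cells against peroxide damage rather than for killing them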
[14] = biological target: T2, NADPH oxidase 1 (Homo sapiens, UniProt Q9Y5S8); test: Late-stage luminescence-based cell-based dose response assay to identify inhibitors of NADPH oxidase 1 (NOX1): Purchased analogs 2.; type: functional
T2 sequence (Q9Y5S8 whole entry): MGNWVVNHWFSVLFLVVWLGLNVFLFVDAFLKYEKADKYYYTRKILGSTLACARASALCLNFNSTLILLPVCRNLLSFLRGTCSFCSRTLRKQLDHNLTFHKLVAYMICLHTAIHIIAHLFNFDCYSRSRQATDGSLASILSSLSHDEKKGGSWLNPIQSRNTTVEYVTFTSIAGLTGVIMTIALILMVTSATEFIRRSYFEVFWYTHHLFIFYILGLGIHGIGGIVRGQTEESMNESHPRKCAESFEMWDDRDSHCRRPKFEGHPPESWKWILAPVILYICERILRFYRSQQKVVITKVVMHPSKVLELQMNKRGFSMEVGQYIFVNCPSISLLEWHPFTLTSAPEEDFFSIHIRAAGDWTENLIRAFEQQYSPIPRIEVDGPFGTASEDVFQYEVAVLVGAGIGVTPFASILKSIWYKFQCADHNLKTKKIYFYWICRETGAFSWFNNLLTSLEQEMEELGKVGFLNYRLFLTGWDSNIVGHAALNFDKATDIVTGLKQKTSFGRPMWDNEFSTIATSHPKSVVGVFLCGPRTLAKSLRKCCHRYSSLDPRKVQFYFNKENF

Photoreceptor-specific nuclear receptor, sequence (Q9Y5X4 whole entry): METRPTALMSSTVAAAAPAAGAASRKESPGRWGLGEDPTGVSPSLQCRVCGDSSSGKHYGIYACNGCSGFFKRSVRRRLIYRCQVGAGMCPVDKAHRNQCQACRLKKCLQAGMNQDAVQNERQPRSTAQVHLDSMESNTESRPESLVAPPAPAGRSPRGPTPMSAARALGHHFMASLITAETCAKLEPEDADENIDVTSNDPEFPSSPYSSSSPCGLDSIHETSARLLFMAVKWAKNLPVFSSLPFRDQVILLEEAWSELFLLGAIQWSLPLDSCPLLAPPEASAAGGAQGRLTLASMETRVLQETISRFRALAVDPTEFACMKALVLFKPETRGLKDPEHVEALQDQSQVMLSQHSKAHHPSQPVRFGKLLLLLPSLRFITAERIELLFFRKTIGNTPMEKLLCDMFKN
5-hydroxytryptamine receptor 1A, sequence (P08908 whole entry): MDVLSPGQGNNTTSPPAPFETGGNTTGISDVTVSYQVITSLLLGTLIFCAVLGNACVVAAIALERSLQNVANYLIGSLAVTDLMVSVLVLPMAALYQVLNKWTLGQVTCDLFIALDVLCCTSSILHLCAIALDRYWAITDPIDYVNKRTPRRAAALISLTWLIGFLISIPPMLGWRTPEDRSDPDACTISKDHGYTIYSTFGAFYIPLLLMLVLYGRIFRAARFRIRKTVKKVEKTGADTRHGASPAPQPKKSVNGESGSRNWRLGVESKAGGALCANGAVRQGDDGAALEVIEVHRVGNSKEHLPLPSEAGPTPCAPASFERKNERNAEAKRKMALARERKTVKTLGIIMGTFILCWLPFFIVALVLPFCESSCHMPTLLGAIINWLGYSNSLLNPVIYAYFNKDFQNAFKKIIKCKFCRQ
Polyadenylate-binding protein 1, sequence (P11940 whole entry, the tested form may be a part): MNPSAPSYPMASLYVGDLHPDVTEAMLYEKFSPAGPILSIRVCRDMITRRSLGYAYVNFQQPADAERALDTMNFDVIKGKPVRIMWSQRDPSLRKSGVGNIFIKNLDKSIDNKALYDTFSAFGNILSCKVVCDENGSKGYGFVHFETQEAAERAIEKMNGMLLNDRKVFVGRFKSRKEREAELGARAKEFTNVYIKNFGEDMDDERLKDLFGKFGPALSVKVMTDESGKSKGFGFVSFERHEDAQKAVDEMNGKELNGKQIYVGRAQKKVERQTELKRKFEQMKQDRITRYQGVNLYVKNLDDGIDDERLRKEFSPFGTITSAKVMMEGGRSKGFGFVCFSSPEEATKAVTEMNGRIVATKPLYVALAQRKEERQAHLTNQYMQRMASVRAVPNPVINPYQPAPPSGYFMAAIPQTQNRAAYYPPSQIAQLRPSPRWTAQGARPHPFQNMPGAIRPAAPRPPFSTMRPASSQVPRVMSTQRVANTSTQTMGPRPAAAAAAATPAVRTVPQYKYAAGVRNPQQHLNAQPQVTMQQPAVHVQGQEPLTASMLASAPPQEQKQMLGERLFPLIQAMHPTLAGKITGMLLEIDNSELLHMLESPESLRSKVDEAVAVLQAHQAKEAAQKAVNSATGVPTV
Genome polyprotein, sequence (Q2Q167 whole entry): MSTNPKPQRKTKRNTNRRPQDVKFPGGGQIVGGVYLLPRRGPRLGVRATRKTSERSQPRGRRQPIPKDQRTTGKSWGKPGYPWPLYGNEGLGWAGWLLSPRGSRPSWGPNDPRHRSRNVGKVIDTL
Peroxisome proliferator-activated receptor gamma/Nuclear receptor corepressor 2, sequence (P37231 whole entry): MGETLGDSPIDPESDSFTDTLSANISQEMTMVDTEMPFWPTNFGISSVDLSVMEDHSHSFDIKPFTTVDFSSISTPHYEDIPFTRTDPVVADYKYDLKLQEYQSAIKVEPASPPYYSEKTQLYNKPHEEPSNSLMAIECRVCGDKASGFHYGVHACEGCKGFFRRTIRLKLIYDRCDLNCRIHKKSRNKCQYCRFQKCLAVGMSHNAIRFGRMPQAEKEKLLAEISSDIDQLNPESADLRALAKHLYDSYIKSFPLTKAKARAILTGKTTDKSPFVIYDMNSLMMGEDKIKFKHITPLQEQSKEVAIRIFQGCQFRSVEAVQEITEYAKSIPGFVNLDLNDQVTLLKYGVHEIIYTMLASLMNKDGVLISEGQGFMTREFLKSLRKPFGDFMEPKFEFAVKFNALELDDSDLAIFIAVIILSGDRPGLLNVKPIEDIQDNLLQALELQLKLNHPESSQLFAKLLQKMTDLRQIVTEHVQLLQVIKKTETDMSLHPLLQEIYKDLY
Peroxisome proliferator-activated receptor gamma/Nuclear receptor corepressor 2, sequence (Q9Y618 whole entry): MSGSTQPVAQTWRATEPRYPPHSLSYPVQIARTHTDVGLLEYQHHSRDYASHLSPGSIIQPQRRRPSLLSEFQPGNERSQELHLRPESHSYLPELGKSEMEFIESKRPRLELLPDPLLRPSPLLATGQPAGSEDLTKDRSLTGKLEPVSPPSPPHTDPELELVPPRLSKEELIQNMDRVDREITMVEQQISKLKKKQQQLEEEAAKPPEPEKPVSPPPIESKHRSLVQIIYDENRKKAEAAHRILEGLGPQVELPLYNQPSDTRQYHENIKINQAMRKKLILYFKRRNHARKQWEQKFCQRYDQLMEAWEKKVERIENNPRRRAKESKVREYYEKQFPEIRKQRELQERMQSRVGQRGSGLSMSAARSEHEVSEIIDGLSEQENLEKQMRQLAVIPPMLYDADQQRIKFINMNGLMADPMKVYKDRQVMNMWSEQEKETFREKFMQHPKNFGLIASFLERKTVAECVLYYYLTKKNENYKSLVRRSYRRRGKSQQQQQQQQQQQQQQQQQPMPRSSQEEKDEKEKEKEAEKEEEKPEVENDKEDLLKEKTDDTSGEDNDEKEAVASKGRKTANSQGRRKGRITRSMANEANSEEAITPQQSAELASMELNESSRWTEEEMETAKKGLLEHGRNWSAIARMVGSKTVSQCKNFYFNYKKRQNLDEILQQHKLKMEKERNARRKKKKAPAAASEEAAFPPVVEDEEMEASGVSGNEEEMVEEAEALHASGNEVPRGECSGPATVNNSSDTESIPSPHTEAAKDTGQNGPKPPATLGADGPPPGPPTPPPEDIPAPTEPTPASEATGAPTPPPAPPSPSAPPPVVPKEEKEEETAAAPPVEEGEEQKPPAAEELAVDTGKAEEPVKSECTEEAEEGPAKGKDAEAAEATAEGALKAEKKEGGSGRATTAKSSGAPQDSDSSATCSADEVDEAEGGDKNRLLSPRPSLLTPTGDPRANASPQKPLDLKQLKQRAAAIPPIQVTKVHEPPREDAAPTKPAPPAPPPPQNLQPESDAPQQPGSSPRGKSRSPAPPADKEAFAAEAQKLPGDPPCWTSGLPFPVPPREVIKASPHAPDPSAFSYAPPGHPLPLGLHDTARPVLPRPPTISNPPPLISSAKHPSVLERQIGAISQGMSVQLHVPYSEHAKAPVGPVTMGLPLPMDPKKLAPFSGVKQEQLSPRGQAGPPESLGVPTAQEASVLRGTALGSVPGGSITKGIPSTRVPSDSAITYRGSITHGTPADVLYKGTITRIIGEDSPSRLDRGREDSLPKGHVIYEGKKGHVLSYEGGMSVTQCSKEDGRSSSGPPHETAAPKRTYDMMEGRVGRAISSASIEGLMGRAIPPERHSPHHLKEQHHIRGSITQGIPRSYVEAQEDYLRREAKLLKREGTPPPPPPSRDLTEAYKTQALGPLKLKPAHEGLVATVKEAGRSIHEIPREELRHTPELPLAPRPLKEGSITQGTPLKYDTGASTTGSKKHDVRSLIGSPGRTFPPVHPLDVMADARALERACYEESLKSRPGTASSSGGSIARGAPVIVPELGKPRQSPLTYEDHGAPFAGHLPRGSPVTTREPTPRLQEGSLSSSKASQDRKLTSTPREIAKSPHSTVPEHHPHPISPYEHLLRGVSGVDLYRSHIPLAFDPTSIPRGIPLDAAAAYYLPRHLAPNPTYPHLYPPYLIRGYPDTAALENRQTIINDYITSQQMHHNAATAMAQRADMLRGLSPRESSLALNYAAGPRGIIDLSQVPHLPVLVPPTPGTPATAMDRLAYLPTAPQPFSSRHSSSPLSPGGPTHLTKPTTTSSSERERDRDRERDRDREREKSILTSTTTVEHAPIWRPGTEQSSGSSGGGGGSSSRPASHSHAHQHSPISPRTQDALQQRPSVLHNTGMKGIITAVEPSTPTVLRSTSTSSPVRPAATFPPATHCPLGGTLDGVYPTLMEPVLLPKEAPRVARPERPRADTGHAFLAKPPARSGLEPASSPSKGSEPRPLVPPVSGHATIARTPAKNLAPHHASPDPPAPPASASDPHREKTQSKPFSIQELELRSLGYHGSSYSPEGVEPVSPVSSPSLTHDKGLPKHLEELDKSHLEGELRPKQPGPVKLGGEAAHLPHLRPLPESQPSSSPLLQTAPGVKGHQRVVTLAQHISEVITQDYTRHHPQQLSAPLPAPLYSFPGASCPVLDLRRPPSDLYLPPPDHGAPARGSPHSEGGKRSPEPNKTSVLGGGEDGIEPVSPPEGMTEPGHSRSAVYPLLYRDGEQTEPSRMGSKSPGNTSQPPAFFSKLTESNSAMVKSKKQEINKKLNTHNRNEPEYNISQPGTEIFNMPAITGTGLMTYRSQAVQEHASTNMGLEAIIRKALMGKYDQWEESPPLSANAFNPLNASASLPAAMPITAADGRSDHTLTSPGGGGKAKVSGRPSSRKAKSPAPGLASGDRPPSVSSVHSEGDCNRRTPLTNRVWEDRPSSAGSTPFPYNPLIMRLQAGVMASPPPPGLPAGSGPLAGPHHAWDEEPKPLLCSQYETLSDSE

C[N+]1=C2CCCCCN2C(O)(c2ccccc2)C1 (centres undefined)
IC50 [1]: 75.1 µM (active) | EC50 [2]: 13.8 µM (not active) | IC50 [3]: 3.25 µM (active) | IC50 [4]: 7.03 µM (active)

CCc1ccccc1NC(=O)c1ccc([N+](=O)[O-])s1
IC50 [5]: > 100 µM (active) | EC50 [6]: 471 nM (active) | EC50 [7]: > 30 µM (not active)

Clc1ccc(CSc2nc[nH]n2)cc1
IC50 [8]: > 100 µM (active)

Cc1cccc2c1NC(=O)/C2=C1\Nc2ccc(Br)cc2C1=O
IC50 [9]: 520 nM (not active)

COc1ccc(-c2ccc(SCC(=O)Nc3nccs3)nn2)cc1OC
IC50 [10]: 6.57 µM (active) | IC50 [11]: 7.04 µM (active)

COc1ccc2oc(C(=O)Nc3ccc(N4CCOCC4)cc3)c(C)c2c1
IC50 [12]: > 49.8 µM (not active) | IC50 [13]: > 79 µM (inactive)

COc1cc(/C=N/Nc2c(F)c(F)nc(F)c2F)cc(OC)c1O
IC50 [14]: 2.94 µM (active)

Source: ChEMBL document CHEMBL1201862, “PubChem BioAssay data set” (2004)
